In this test the target is Type-2 angiotensin II receptor (Oryctolagus cuniculus). The test is described as follows: The compound was tested for binding affinity against Angiotensin II receptor, type 2 from rabbit uterus membrane by using [125I]AngII as radioligand.

Turning to `CCCCc1ncc(C=C2C(=O)NC(=O)N2CCCC)n1Cc1ccc(-c2ccccc2-c2nnn[nH]2)cc1` [1-Butyl-5-[1-{2-butyl-3-[2'-(1H-tetrazol-5-yl)-biphenyl-4-ylmethyl]-3H-imidazol-4-yl}-meth-(Z)-ylidene]-imidazolidine-2,4-dione], the IC50 (as a rule, the concentration that gives 50% inhibition) amounted to 0.789 µM.

In the case of `CCCCc1ncc(/C=C2/C(=O)N(CCCC)C(=O)N2CCCC)n1Cc1ccc(C(=O)OC)cc1` [4-{2-Butyl-5-[1,3-dibutyl-2,5-dioxo-imidazolidin-(4Z)-ylidenemethyl]-imidazol-1-ylmethyl}-benzoic acid methyl ester], the IC50 is 5.87 µM.

Values taken from BindingDB's records for doi:10.1021/jm00019a005 (Warner-Lambert, 1995).
